Peptide text beside a SMILES is read from it.
Legend:
Assay type in all cases: cell-based
YdgR [1] = biological target: T1, YdgR (Escherichia coli, UniProt P77304); test: inhibition of β-Ala-Lys-AMCA uptake in E. coli; conditions: 10 mM peptide, 0.5 mM labelled substrate β-Ala-Lys-AMCA, pH 6.5, 37 °C; competing substrate
T1 construct: gene dtpA; full-length, C-terminal His6 tag, expressed in E. coli BL21(DE3) pLysS, whole-cell uptake
T1 sequence (P77304 1-500): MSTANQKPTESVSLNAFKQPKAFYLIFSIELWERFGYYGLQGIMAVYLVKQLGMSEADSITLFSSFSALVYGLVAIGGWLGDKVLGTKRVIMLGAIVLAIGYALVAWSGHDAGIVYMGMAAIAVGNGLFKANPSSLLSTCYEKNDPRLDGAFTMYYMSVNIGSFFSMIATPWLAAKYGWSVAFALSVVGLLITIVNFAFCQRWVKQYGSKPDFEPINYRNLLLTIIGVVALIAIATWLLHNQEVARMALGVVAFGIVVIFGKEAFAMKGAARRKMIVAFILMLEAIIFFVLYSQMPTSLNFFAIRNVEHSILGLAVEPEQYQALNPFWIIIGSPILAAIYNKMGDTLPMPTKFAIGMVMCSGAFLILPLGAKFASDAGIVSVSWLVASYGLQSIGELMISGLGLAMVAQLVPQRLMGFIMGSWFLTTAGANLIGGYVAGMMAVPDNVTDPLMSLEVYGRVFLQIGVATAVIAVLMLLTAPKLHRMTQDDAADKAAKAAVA

YdgR [2] = biological target: T1, YdgR; test: fluorescent uptake in E. coli; conditions: 0.5 mM, labelled compound, pH 6.5, 37 °C
YjdL = biological target: T2, YjdL (Escherichia coli, UniProt P39276); test: fluorescent uptake in E. coli; conditions: 0.5 mM, labelled compound, cells preloaded with AA, with and without CCCP, 37 °C
T2 construct: gene dtpC; full-length, C-terminal His6 tag, expressed in E. coli BL21(DE3) pLysS, whole-cell uptake
T2 sequence (P39276 1-485): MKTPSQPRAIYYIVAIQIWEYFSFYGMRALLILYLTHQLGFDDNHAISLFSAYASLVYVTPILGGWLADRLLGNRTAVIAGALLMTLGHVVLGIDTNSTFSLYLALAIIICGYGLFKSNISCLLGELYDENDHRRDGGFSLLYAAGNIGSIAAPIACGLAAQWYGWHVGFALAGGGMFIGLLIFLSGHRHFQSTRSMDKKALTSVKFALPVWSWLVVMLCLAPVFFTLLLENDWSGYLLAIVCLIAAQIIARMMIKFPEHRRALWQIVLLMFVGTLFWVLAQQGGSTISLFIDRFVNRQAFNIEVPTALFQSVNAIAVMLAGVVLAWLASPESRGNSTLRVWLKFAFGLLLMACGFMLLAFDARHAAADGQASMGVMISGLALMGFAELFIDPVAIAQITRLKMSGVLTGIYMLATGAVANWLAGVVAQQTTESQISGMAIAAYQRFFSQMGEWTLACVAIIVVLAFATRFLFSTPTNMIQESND

Row | SMILES | uptake inhibition (YdgR [1]) | fluorescent uptake in E. coli (YdgR [2]) | fluorescent uptake in E. coli (YjdL)
1 | C[C@H](N)C(=O)N[C@@H](C)C(=O)O [AA] (H-Ala-Ala-OH) | its uptake was significantly decreased in the presence of AA and AAA | – | –
2 | Cc1c(CC(=O)NCCCC[C@H](NC(=O)CCN)C(=O)O)c(=O)oc2cc(N)ccc12 [β-Ala-Lys-AMCA] | – | Overall β-Ala-Lys-AMCA uptake by CPEPOT was significantly lower than YdgR | YjdL and YdgR exhibited a significant decline in uptake activity in the presence of CCCP
